Where “and” joins values, the source holds several entries; their conditions need not be identical. Equal values may be shown once.
Test system: Swiss mice, Sarcoma 180 sc, mean tumor weight T/C
Assay: NCI In Vivo Anticancer Drug Screen. Data for tumor model Sarcoma 180 (subcutaneous) in Swiss mice
Settings: endpoint: mean tumor weight, higher = larger tumour
Method in brief: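 Tumor-bearing mice, transplantable tumor; readout survival or tumor size; result = T/C, treated vs vehicle control.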

[1] = dose: 0.2 mg/kg/injection, schedule: Q01DX007 (ip), vehicle: carboxymethylcellulose (CMC)

SMILES: CC1=C2C(=CC(C)(C)[C@@H]2O)C(=O)[C@](C)(O)C12CC2
- T/C (dose: 0.1 mg/kg/injection, schedule: Q01DX007 (ip), vehicle: saline): 63 % of control
- T/C (dose: 0.2 mg/kg/injection, schedule: Q01DX007 (ip), vehicle: saline): 25 % of control
- T/C (dose: 0.3 mg/kg/injection, schedule: Q01DX007 (ip), vehicle: saline): 57 % of control
- T/C (dose: 0.4 mg/kg/injection, schedule: Q01DX007 (ip), vehicle: saline): 28 % of control
- T/C (dose: 25.0 micrograms/kg/injection, schedule: Q01DX007 (ip), vehicle: saline): 70 % of control
- T/C (dose: 50.0 micrograms/kg/injection, schedule: Q01DX007 (ip), vehicle: saline): 102 % of control
- T/C (dose: 100.0 micrograms/kg/injection, schedule: Q01DX007 (ip), vehicle: saline): 84 % of control
- T/C (dose: 200.0 micrograms/kg/injection, schedule: Q01DX007 (ip), vehicle: saline): 100 % of control

SMILES: O=c1cn[nH]c(=O)[nH]1
- T/C (dose: 62.5 mg/kg/injection, schedule: Q#A X014 (ip), vehicle: carboxymethylcellulose (CMC)): 103 % of control
- T/C (dose: 125.0 mg/kg/injection, schedule: Q#A X014 (ip), vehicle: carboxymethylcellulose (CMC)): 77 % of control
- T/C (dose: 250.0 mg/kg/injection, schedule: Q#A X014 (ip), vehicle: carboxymethylcellulose (CMC)): 73 % of control
- T/C (dose: 500.0 mg/kg/injection, schedule: Q#A X014 (ip), vehicle: carboxymethylcellulose (CMC)): 45 % of control

SMILES: O=C(O)c1ccc(N=NSc2ncnc3nc[nH]c23)cc1O
- T/C [1]: 101 % of control
- T/C (dose: 0.5 mg/kg/injection, schedule: Q01DX007 (ip), vehicle: carboxymethylcellulose (CMC)): 115 % of control
- T/C (dose: 1.0 mg/kg/injection, schedule: Q01DX007 (ip), vehicle: carboxymethylcellulose (CMC)): 108 % of control
- T/C (dose: 8.0 mg/kg/injection, schedule: Q01DX007 (ip), vehicle: carboxymethylcellulose (CMC)): 9 % of control

SMILES: CN1CC(=O)N=C1N
- T/C (dose: 500.0 mg/kg/injection, schedule: Q#A X014 (ip), vehicle: water): 74 % of control
- T/C (dose: 1500.0 mg/kg/injection, schedule: Q#A X014 (ip), vehicle: water): 73 % of control

SMILES: O=C1c2ccccc2-c2c3c(cc4ccnc1c24)OCO3
- T/C (dose: 45.0 mg/kg/injection, schedule: Q01DX007 (ip), vehicle: saline): 81 % of control
- T/C (dose: 65.0 mg/kg/injection, schedule: Q01DX007 (ip), vehicle: saline): 67 % of control
- T/C (dose: 100.0 mg/kg/injection, schedule: Q01DX007 (ip), vehicle: saline): 75 % of control
- T/C (dose: 150.0 mg/kg/injection, schedule: Q01DX007 (ip), vehicle: saline): 47 % of control

SMILES: CCN(CC)CCNc1ccc([N+](=O)[O-])c2sc3ccccc3c(=O)c12
- T/C (dose: 14.0 mg/kg/injection, schedule: Q#A X014 (ip), vehicle: saline): 71 % of control
- T/C (dose: 21.0 mg/kg/injection, schedule: Q#A X014 (ip), vehicle: saline): 65 % of control
- T/C (dose: 31.5 mg/kg/injection, schedule: Q#A X014 (ip), vehicle: saline): 65 % of control
- T/C (dose: 47.5 mg/kg/injection, schedule: Q#A X014 (ip), vehicle: saline): 34 % of control

SMILES: O=c1[nH]cc(N(CCCl)CCCl)c(=O)[nH]1
- T/C [1]: 104 % of control
- T/C (dose: 0.31 mg/kg/injection, schedule: Q#A X014 (ip), vehicle: carboxymethylcellulose (CMC)): 51 % of control
- T/C (dose: 0.32 mg/kg/injection, schedule: Q#A X014 (ip), vehicle: carboxymethylcellulose (CMC)): 65 % of control
- T/C (dose: 0.4 mg/kg/injection, schedule: Q01DX007 (ip), vehicle: carboxymethylcellulose (CMC)): 88 % of control
- T/C (dose: 0.4 mg/kg/injection, schedule: Q#A X014 (ip), vehicle: carboxymethylcellulose (CMC)): 67 % of control
- T/C (dose: 0.53 mg/kg/injection, schedule: Q#A X014 (ip), vehicle: carboxymethylcellulose (CMC)): 67 % of control
- T/C (dose: 0.62 mg/kg/injection, schedule: Q#A X014 (ip), vehicle: carboxymethylcellulose (CMC)): 32 % of control
- T/C (dose: 0.64 mg/kg/injection, schedule: Q01DX007 (ip), vehicle: carboxymethylcellulose (CMC)): 85 % of control
- T/C (dose: 0.75 mg/kg/injection, schedule: Q01DX007 (ip), vehicle: saline): 85 % of control
- T/C (dose: 0.8 mg/kg/injection, schedule: Q01DX007 (ip), vehicle: carboxymethylcellulose (CMC)): 62 % of control and 76 % of control
- T/C (dose: 0.8 mg/kg/injection, schedule: Q#A X014 (ip), vehicle: carboxymethylcellulose (CMC)): 41 % of control
- T/C (dose: 1.06 mg/kg/injection, schedule: Q01DX007 (ip), vehicle: carboxymethylcellulose (CMC)): 51 % of control
- T/C (dose: 1.5 mg/kg/injection, schedule: Q01DX007 (ip), vehicle: saline): 60 % of control
- T/C (dose: 1.5 mg/kg/injection, schedule: Q#A X014 (ip), vehicle: alkali diluted with saline): 21 % of control
- T/C (dose: 1.6 mg/kg/injection, schedule: Q01DX007 (ip), vehicle: carboxymethylcellulose (CMC)): 21 % of control

SMILES: CN=C(N)/N=C(\N)Nc1cc2ccccc2c2ccccc12
- T/C (dose: 1.0 mg/kg/injection, schedule: Q01DX007 (ip), vehicle: acid diluted with saline): 89 % of control
- T/C (dose: 2.0 mg/kg/injection, schedule: Q01DX007 (ip), vehicle: acid diluted with saline): 93 % of control
- T/C (dose: 4.0 mg/kg/injection, schedule: Q01DX007 (ip), vehicle: acid diluted with saline): 92 % of control

SMILES: CC(=O)OCC1OC(n2cnc3c(=S)nc(N)[nH]c32)C(OC(C)=O)C1OC(C)=O (configuration not stated)
- T/C (dose: 3.0 mg/kg/injection, schedule: Q01DX007 (ip), vehicle: other): 12 % of control
- T/C (dose: 3.0 mg/kg/injection, schedule: Q01DX007 (ip), vehicle: saline): 64 % of control
- T/C (dose: 4.4 mg/kg/injection, schedule: Q01DX007 (ip), vehicle: other): 6 % of control
- T/C (dose: 6.6 mg/kg/injection, schedule: Q01DX007 (ip), vehicle: carboxymethylcellulose (CMC)): 43 % of control
- T/C (dose: 6.6 mg/kg/injection, schedule: Q01DX007 (ip), vehicle: other): 18 % of control and 29 % of control
- T/C (dose: 10.0 mg/kg/injection, schedule: Q01DX007 (ip), vehicle: carboxymethylcellulose (CMC)): 28 % of control
- T/C (dose: 10.0 mg/kg/injection, schedule: Q01DX007 (ip), vehicle: other): 51 % of control
- T/C (dose: 15.0 mg/kg/injection, schedule: Q01DX007 (ip), vehicle: carboxymethylcellulose (CMC)): 9 % of control
- T/C (dose: 15.0 mg/kg/injection, schedule: Q01DX007 (ip), vehicle: other): 6 % of control and 24 % of control
- T/C (dose: 22.0 mg/kg/injection, schedule: Q01DX007 (ip), vehicle: carboxymethylcellulose (CMC)): 9 % of control
- T/C (dose: 22.0 mg/kg/injection, schedule: Q01DX007 (ip), vehicle: other): 3 % of control and 10 % of control
- T/C (dose: 33.0 mg/kg/injection, schedule: Q01DX007 (ip), vehicle: other): 11 % of control

SMILES: CCCCCCCCCCCCCCCCNc1cccc2ccccc12
- T/C (dose: 111.0 mg/kg/injection, schedule: Q#A X014 (ip), vehicle: methylcellulose (MC)): 64 % of control and 82 % of control
- T/C (dose: 166.5 mg/kg/injection, schedule: Q#A X014 (ip), vehicle: methylcellulose (MC)): 49 % of control and 66 % of control
- T/C (dose: 250.0 mg/kg/injection, schedule: Q#A X014 (ip), vehicle: methylcellulose (MC)): 41 % of control

SMILES: CN(C)C1C(=O)C(C(N)=O)=C(O)C2(O)C(=O)C3=C(O)c4c(O)cccc4C(C)(O)C3C(O)C12 (configuration not stated)
- T/C (dose: 15.12 mg/kg/injection, schedule: Q01DX007 (ip), vehicle: carboxymethylcellulose (CMC)): 98 % of control
- T/C (dose: 17.5 mg/kg/injection, schedule: Q01DX007 (ip), vehicle: carboxymethylcellulose (CMC)): 111 % of control
- T/C (dose: 31.25 mg/kg/injection, schedule: Q01DX007 (ip), vehicle: carboxymethylcellulose (CMC)): 124 % of control
- T/C (dose: 35.0 mg/kg/injection, schedule: Q01DX007 (ip), vehicle: carboxymethylcellulose (CMC)): 105 % of control
- T/C (dose: 62.5 mg/kg/injection, schedule: Q01DX007 (ip), vehicle: carboxymethylcellulose (CMC)): 117 % of control
- T/C (dose: 70.0 mg/kg/injection, schedule: Q01DX007 (ip), vehicle: carboxymethylcellulose (CMC)): 102 % of control
- T/C (dose: 125.0 mg/kg/injection, schedule: Q01DX007 (ip), vehicle: carboxymethylcellulose (CMC)): 50 % of control
- T/C (dose: 140.0 mg/kg/injection, schedule: Q01DX007 (ip), vehicle: carboxymethylcellulose (CMC)): 79 % of control
